Measured values published in ChEMBL document CHEMBL4334453, “Callistemonols A and B, Potent Antimicrobial Acylphloroglucinol Derivatives with Unusual Carbon Skeletons from Callistemon viminalis” (2019).
Converted amounts (≈) assume the structure as drawn. The source made the active and inactive calls. The calls are words filed in the database; no cut-off is given here.

Columns and labels:
Escherichia coli = assay: Antibacterial activity against Escherichia coli ATCC 8739 incubated overnight by CLSI protocol based microdilution assay; assay type: functional
Staphylococcus aureus [1] = assay: Disruption of membrane integrity in methicillin-reisitant Staphylococcus aureus JCSC 4744 measured after 4 hrs by SYTOX-greeen-based fluorescence assay; assay type: functional, organism-based
Staphylococcus aureus [2] = assay: Induction of cytoplasmic membrane depolarization in methicillin-resistant Staphylococcus aureus JCSC 4744 at 0.5 to 8 fold MIC by DiSC3-5 dye-based fluorescence assay; assay type: functional, organism-based
Staphylococcus aureus [3] = assay: Induction of cell lysis in methicillin-resistant Staphylococcus aureus JCSC 4744 assessed as formation of membrane disruption at 8 fold MIC after 4 hrs by scanning electron microscopy; assay type: functional, organism-based
Staphylococcus aureus [4] = assay: Bactericidal activity against methicillin-resistant Staphylococcus aureus JCSC 4744 assessed as reduction in cell survival by measuring colony forming units at MIC after 24 hrs by time-kill assay relative to control; assay type: functional
Staphylococcus aureus [5] = assay: Antibacterial activity against methicillin-resistant Staphylococcus aureus JCSC 4744 incubated overnight by CLSI protocol based microdilution assay; assay type: functional
Bacillus cereus [6] = assay: Bactericidal activity against Bacillus cereus CMCC 63302 measured after 24 hrs by sub-culturing; assay type: functional; conditions: CMCC 63302, 24 h
Staphylococcus aureus [7] = assay: Bactericidal activity against methicillin-resistant Staphylococcus aureus JCSC 4469 measured after 24 hrs by sub-culturing; assay type: functional; conditions: JCSC 4469, 24 h
Staphylococcus aureus [8] = assay: Antibacterial activity against methicillin-resistant Staphylococcus aureus JCSC 4469 incubated overnight by CLSI protocol based microdilution assay; assay type: functional
Staphylococcus aureus [9] = assay: Antibacterial activity against Staphylococcus aureus CMCC 26003 incubated overnight by CLSI protocol based microdilution assay
Staphylococcus aureus [10] = assay: Bactericidal activity against methicillin-resistant Staphylococcus aureus JCSC 4744 assessed as reduction in cell survival by measuring colony forming units at MIC measured within 4 hrs by time-kill assay relative to control; assay type: functional
Staphylococcus aureus [11] = assay: Bactericidal activity against methicillin-resistant Staphylococcus aureus JCSC 4744 assessed as reduction in cell survival at 8 fold MIC measured after 24 hrs by time-kill assay; assay type: functional, organism-based
Staphylococcus aureus [12] = assay: Bactericidal activity against methicillin-resistant Staphylococcus aureus JCSC 4744 assessed as reduction in cell survival by measuring colony forming units at MIC measured within 4 hrs by time-kill assay; assay type: functional
Staphylococcus aureus [13] = assay: Bactericidal activity against Staphylococcus aureus CMCC 26003 measured after 24 hrs by sub-culturing; conditions: CMCC 26003, 24 h
Staphylococcus aureus [14] = assay: Induction of cell lysis in methicillin-resistant Staphylococcus aureus JCSC 4744 assessed as formation of membrane fissures at 8 fold MIC after 4 hrs by scanning electron microscopy; assay type: functional, organism-based
Staphylococcus aureus [15] = assay: Bactericidal activity against methicillin-resistant Staphylococcus aureus JCSC 4744 measured after 24 hrs by sub-culturing; assay type: functional; conditions: JCSC 4744, 24 h
Bacillus cereus [16] = assay: Antibacterial activity against Bacillus cereus CMCC 63302 incubated overnight by CLSI protocol based microdilution assay; assay type: functional
Staphylococcus aureus [17] = assay: Disruption of membrane integrity in methicillin-reisitant Staphylococcus aureus JCSC 4744 at 10 ug/ml measured within 2 mins by SYTOX-greeen-based fluorescence assay; assay type: functional, organism-based

Q: `COc1cc(O)c(C(=O)CC(C)C)c2c1[C@]1(O)C(O)=C(C(=O)C(C)C)C(=O)C[C@]1(OC)O2` was tested. Which MIC (Escherichia coli) did it give?
A: The MIC was greater than 100 µg/mL.

Q: What about the Activity (Staphylococcus aureus [1]) of the same molecule?
A: Its Activity is “Active”.

Q: And the Activity (Staphylococcus aureus [2])?
A: Its Activity is “Active”.

Q: What about the Activity (Staphylococcus aureus [3]) of the same molecule?
A: The Activity was “Active”.

Q: What about the “inhibition (INH)” value (Staphylococcus aureus [4]) of the same molecule?
A: The value was 100%.

Q: And the MIC (Staphylococcus aureus [5])?
A: Its MIC is 3.12 µg/mL (≈ 6.96 µM).

Q: And the MBC (Bacillus cereus [6])?
A: Its MBC is 50 µg/mL (≈ 111 µM).

Q: What about the MBC (Staphylococcus aureus [7]) of the same molecule?
A: The MBC was 6.25 µg/mL (≈ 13.9 µM).

Q: And the MIC (Staphylococcus aureus [8])?
A: Its MIC is 3.12 µg/mL (≈ 6.96 µM).

Q: And the MIC (Staphylococcus aureus [9])?
A: The MIC was 25 µg/mL (≈ 55.7 µM).

Q: And the “inhibition (INH)” value (Staphylococcus aureus [10])?
A: Its value is 99%.

Q: And the Activity (Staphylococcus aureus [11])?
A: Its Activity is “Active”.

Q: What about the Activity (Staphylococcus aureus [12]) of the same molecule?
A: The Activity was 2 log10CFU/ml.

Q: And the MBC (Staphylococcus aureus [13])?
A: Its MBC is 50 µg/mL (≈ 111 µM).

Q: What about the Activity (Staphylococcus aureus [14]) of the same molecule?
A: Its Activity is “Active”.

Q: What about the MBC (Staphylococcus aureus [15]) of the same molecule?
A: Its MBC is 6.25 µg/mL (≈ 13.9 µM).

Q: And the MIC (Bacillus cereus [16])?
A: Its MIC is 25 µg/mL (≈ 55.7 µM).

Q: Which results are given for `COC1=C(C(=O)CC(C)C)C(=O)C(O)C1(C)C` (centres undefined)?
A: MIC (Escherichia coli): > 100 µg/mL; Activity (Staphylococcus aureus [1]): Active; Activity (Staphylococcus aureus [2]): Active; Activity (Staphylococcus aureus [3]): Active; inhibition (INH) (Staphylococcus aureus [4]): 100%; MIC (Staphylococcus aureus [5]): 1.56 µg/mL (≈ 6.49 µM); MBC (Bacillus cereus [6]): 25 µg/mL (≈ 104 µM); MBC (Staphylococcus aureus [7]): 6.25 µg/mL (≈ 26 µM); MIC (Staphylococcus aureus [8]): 3.12 µg/mL (≈ 13 µM); MIC (Staphylococcus aureus [9]): 3.12 µg/mL (≈ 13 µM); inhibition (INH) (Staphylococcus aureus [10]): 99%; Activity (Staphylococcus aureus [12]): 2 log10CFU/ml; MBC (Staphylococcus aureus [13]): 6.25 µg/mL (≈ 26 µM); Activity (Staphylococcus aureus [14]): Active; MBC (Staphylococcus aureus [15]): 3.12 µg/mL (≈ 13 µM); MIC (Bacillus cereus [16]): 12.5 µg/mL (≈ 52 µM)

Q: For `CN[C@H](CC(C)C)C(=O)N[C@H]1C(=O)N[C@@H](CC(N)=O)C(=O)N[C@H]2C(=O)N[C@H]3C(=O)N[C@H](C(=O)N[C@H](C(=O)O)c4cc(O)cc(O)c4-c4cc3ccc4O)[C@H](O)c3ccc(c(Cl)c3)Oc3cc2cc(c3O[C@@H]2O[C@H](CO)[C@@H](O)[C@H](O)[C@H]2O[C@H]2C[C@](C)(N)[C@H](O)[C@H](C)O2)Oc2ccc(cc2Cl)[C@H]1O` [VANCOMYCIN], which MIC (Escherichia coli) is on record?
A: The MIC was 50 µg/mL (≈ 34.5 µM).

Q: What about the MIC (Staphylococcus aureus [5]) of the same molecule?
A: Its MIC is 0.78 µg/mL (≈ 0.538 µM).

Q: And the MBC (Staphylococcus aureus [7])?
A: Its MBC is 2.5 µg/mL (≈ 1.73 µM).

Q: What about the MIC (Staphylococcus aureus [8]) of the same molecule?
A: The MIC was 0.78 µg/mL (≈ 0.538 µM).

Q: What about the MIC (Staphylococcus aureus [9]) of the same molecule?
A: Its MIC is 1.56 µg/mL (≈ 1.08 µM).

Q: And the “inhibition (INH)” value (Staphylococcus aureus [10])?
A: Its value is 99%.

Q: What about the Activity (Staphylococcus aureus [12]) of the same molecule?
A: Its Activity is 2 log10CFU/ml.

Q: And the MBC (Staphylococcus aureus [13])?
A: Its MBC is 2.5 µg/mL (≈ 1.73 µM).

Q: And the MBC (Staphylococcus aureus [15])?
A: Its MBC is 2.5 µg/mL (≈ 1.73 µM).

Q: And the MIC (Bacillus cereus [16])?
A: Its MIC is 50 µg/mL (≈ 34.5 µM).

Q: With `CC[C@H](C)[C@H](NC(=O)CN)C(=O)NCC(=O)N[C@@H](C)C(=O)N[C@H](C(=O)N[C@@H](CC(C)C)C(=O)N[C@@H](CCCCN)C(=O)N[C@H](C(=O)N[C@@H](CC(C)C)C(=O)N[C@H](C(=O)N[C@H](C(=O)NCC(=O)N[C@@H](CC(C)C)C(=O)N1CCC[C@H]1C(=O)N[C@@H](C)C(=O)N[C@@H](CC(C)C)C(=O)N[C@H](C(=O)N[C@@H](CO)C(=O)N[C@@H](Cc1c[nH]c2ccccc12)C(=O)N[C@H](C(=O)N[C@@H](CCCCN)C(=O)N[C@@H](CCCNC(=N)N)C(=O)N[C@@H](CCCCN)C(=O)N[C@@H](CCCNC(=N)N)C(=O)N[C@@H](CCC(N)=O)C(=O)N[C@@H](CCC(N)=O)C(N)=O)[C@@H](C)CC)[C@@H](C)CC)[C@@H](C)O)[C@@H](C)O)C(C)C)C(C)C` as the molecule, how does the Activity (Staphylococcus aureus [17]) read?
A: Its Activity is “Active”.
